Values after ≈ are worked out from the molar mass of the structure shown.
Legend:
[1] = test system: E. coli (53); assay: MIC by agar dilution; type: cell-based, Escherichia coli
Excerpt: (§1) Bacterial isolates. […] These included Citrobacter freundii (n=5), other species of Citrobacter (n=4), Enterobacter aerogenes (n=1), Enterobacter cloacae (n=27), Escherichia coli (n=53), Klebsiella oxytoca (n=5), Klebsiella pneumoniae (n=87), Kluyvera spp (n=1), Proteus mirabilis (n=8), Providencia rettgeri (n=2), Salmonella spp (n=3), and Serratia marcescens (n=1). Among these 197 isolates, there were 128 (65%) carbapenemase producers, including; 87 with NDM-1, 9 with IMP, 11 with KPC, 14 with OXA-48 and 7 with VIM. The majority of the carbapenemase producers jointly produced broad-spectrum β-lactamases (BSBL) or cephalosporinases (AmpC β-lactamases), but the latter are not documented for the sake of clarity.
(§2) Determining the minimum inhibitory concentrations (MIC). All the MICs were determined using an agar dilution method. This required use of a medium without a defined antagonist (peptone-free), prepared as described previously with the inclusion of 2% horse blood lysed with saponin, 25.0 μg/mL of NAD and 25.0 μg/mL of hemin [17]. The compounds tested were dissolved in sterile deionised water and incorporated into the agar medium in a concentration range of 0.0031 to 8.0 μg/mL (0.016 to 32 μg/mL for gram-positive bacteria). All the isolates were prepared at a density equivalent to 0.5 McFarland units in sterile deionised water using a densitometer (approximately 1.5×10^8 CFU/mL), and then diluted to 1 for 15. An aliquot of 1 μL of each diluted suspension was then placed onto plates with a multispot inoculator to give the final recommended inoculation of 10 000 CFU/spot. The MICs of fosfomycin were determined by the same method, except that the IsoSensitest medium (Oxoid, Basingstoke, United Kingdom) was used, plus 25.0 μg/mL of glucose-6-phosphate (Sigma, Poole, United Kingdom) and an extended range of fosfomycin concentrations. All the dishes (including the antimicrobial-free controls) were incubated for 22 hours at 37° C. All the tests were performed on at least two independent replicates in order to examine the reproducibility.

[2] = test system: K. pneumoniae (87); assay: MIC by agar dilution; type: cell-based, Klebsiella pneumoniae; details: Klebsiella pneumoniae
Excerpt: as §1, §2

[3] = test system: E. cloacae (27); assay: MIC by agar dilution; type: cell-based, Enterobacter cloacae
Excerpt: as §1, §2

[4] = test system: AmpC (22); assay: MIC by agar dilution; type: cell-based, Enterobacteriaceae
Excerpt: as §1, §2

[5] = test system: All S. aureus (50); assay: MIC by agar dilution; type: cell-based, Staphylococcus aureus
Excerpt: (§3) A collection of 50 isolates of Staphylococci aureus included 36 strains of methicillin-resistant S. aureus (MRSA) frequently encountered in Europe, including strains isolated in Belgium, Finland, France, Germany and the United Kingdom. Another strain of MRSA, NCTC 11939, was included as a control, as well as a methicillin-sensitive control (NCTC 6571). Twelve other isolates of methicillin-sensitive Staphylococcus aureus (MSSA) recently collected from blood cultures were also included. Finally, 50 isolates of enterococci included two control strains (Enterococcus faecalis NCTC 755 and Enterococcus faecium NCTC 7171) and 48 isolates originating from clinical samples obtained from at least three different hospitals. The clinical isolates included E. faecalis (n=10), E. faecium (n=33), Enterococcus casseliflavus (n=3), Enterococcus gallinarum (n=2).
as §2

[6] = test system: All Enterococci (50); assay: MIC by agar dilution; type: cell-based
Excerpt: as §3, §2

[7] = test system: glycopeptide-resistant enterococci; assay: MIC by agar dilution; type: cell-based
Excerpt: as §3, §2

[8] = test system: methicillin-resistant Staphylococcus aureus; assay: MIC by agar dilution; type: cell-based
Excerpt: as §3, §2

[9] = test system: methicillin-sensitive Staphylococcus aureus; assay: MIC by agar dilution; type: cell-based
Excerpt: as §3, §2

[10] = test system: E. faecalis (11); assay: MIC by agar dilution; type: cell-based, Enterococcus faecalis; details: Enterococcus faecalis
Excerpt: as §3, §2

[11] = test system: E. faecium (34); assay: MIC by agar dilution; type: cell-based, Enterococcus faecium
Excerpt: as §3, §2

[12] = test system: Citrobacter (n=9); assay: MIC by agar dilution; type: cell-based
Excerpt: as §1, §2

[13] = test system: Enterobacteriaceae (197); assay: MIC by agar dilution; type: cell-based
Excerpt: as §1, §2

[14] = test system: Enterobacteriaceae with a broad-spectrum β-lactamase; assay: MIC by agar dilution; type: cell-based
Excerpt: as §1, §2

[15] = test system: carbapenemase-producing Enterobacteriaceae; assay: MIC by agar dilution; type: cell-based
Excerpt: as §1, §2

[16] = test system: E. aerogenes (n=1); assay: MIC by agar dilution; type: cell-based, Enterobacter aerogenes
Excerpt: as §1
(§4) Determining the minimum inhibitory concentrations (MIC). All the MICs were determined using an agar dilution method. This required use of a medium without a defined antagonist (peptone-free), prepared as described previously with the inclusion of 2% horse blood lysed with saponin, 25.0 μg/mL of NAD and 25.0 μg/mL of hemin [17]. […] The MICs of fosfomycin were determined by the same method, except that the IsoSensitest medium (Oxoid, Basingstoke, United Kingdom) was used, plus 25.0 μg/mL of glucose-6-phosphate (Sigma, Poole, United Kingdom) and an extended range of fosfomycin concentrations. […]

[17] = test system: Kluyvera sp. (n=1); assay: MIC by agar dilution; type: cell-based, Kluyvera spp
Excerpt: as §1, §4

[18] = test system: S. marcescens (n=1); assay: MIC by agar dilution; type: cell-based, Serratia marcescens
Excerpt: as §1, §4

[19] = test system: K. oxytoca; assay: MIC by agar dilution; type: cell-based, Klebsiella oxytoca; details: five isolates of K. oxytoca
Excerpt: as §1, §4

[20] = test system: Salmonella isolates; assay: MIC by agar dilution; type: cell-based, Salmonella spp; details: Salmonella, read-out: MICs
Excerpt: as §1, §4

[21] = test system: Escherichia coli; assay: Growth and colour on Salmonella detection medium; type: cell-based; details: added to the chromID Salmonella medium (0.002 g/L)
Excerpt: The present Example 3 aims to compare the detection specificity of a reaction medium according to the invention, intended to detect bacteria of the genus Salmonella, namely the medium “modified chromlD Salmonella” against a reference detection medium for the same bacteria, namely the medium “chromlD Salmonella”.
The respective compositions of the reaction medium according to the present invention and of the reference reaction medium are presented below, within Table 2.

[22] = read-out: Modal MIC (most frequent MIC)

C[C@H](NC(=O)[C@@H](N)CCl)P(=O)(O)O [β-Cl-Alafosfalin, β-chloro-L-alanyl-L-1-aminoethylphosphonic acid]
concentration by which growth of all the isolates was inhibited ([1]; 53 isolates of E. coli): 0.5 µg/mL
activity relative to that of alafosfalin ([1]; E. coli): at least twice
activity relative to that of fosfomycin ([1]; E. coli): at least eight
MIC Range ([1]; E. coli (53)): ≤0.031-0.5 ^ μg/mL
MIC50 ([1]; Escherichia coli): 0.063 µg/mL (≈ 0.273 µM)
MIC90 ([1]; Escherichia coli): 0.125 µg/mL (≈ 0.542 µM)
MIC ([1]; Escherichia coli, read-out: Modal MIC (most frequent MIC)): 0.063 µg/mL (≈ 0.273 µM)
MIC50 [2]: 1 µg/mL (≈ 4.34 µM)
MIC90 [2]: 8 µg/mL (≈ 34.7 µM)
MIC [2, 22]: 1 µg/mL (≈ 4.34 µM)
percent of isolates inhibited at 8 µg/mL ([2]; read-out: isolates inhibited): 93%
MIC Range ([3]; E. cloacae (27)): 0.063 to 1 µg/mL
concentration by which all the isolates were inhibited ([3]; E. cloacae isolates (n=27)): 1 µg/mL
MIC50 ([3]; Enterobacter cloacae): 0.5 µg/mL (≈ 2.17 µM)
MIC90 ([3]; Enterobacter cloacae): 0.5 µg/mL (≈ 2.17 µM)
MIC ([3]; Enterobacter cloacae, read-out: Modal MIC (most frequent MIC)): 0.5 µg/mL (≈ 2.17 µM)
MIC50 [4]: 2 µg/mL (≈ 8.67 µM)
MIC90 [4]: > 8 µg/mL
MIC [4, 22]: > 8 µg/mL
MIC Range ([5]; All S. aureus (50)): 0.125 to 4 µg/mL
MIC50 ([5]; Staphylococcus aureus): 1 µg/mL (≈ 4.34 µM)
MIC90 ([5]; Staphylococcus aureus): 2 µg/mL (≈ 8.67 µM)
MIC ([5]; Staphylococcus aureus, read-out: Modal MIC (most frequent MIC)): 2 µg/mL (≈ 8.67 µM)
MIC50 [6]: 8 µg/mL (≈ 34.7 µM)
MIC90 [6]: 16 µg/mL (≈ 69.4 µM)
MIC [6, 22]: 8 µg/mL (≈ 34.7 µM)
MIC50 [7]: 8 µg/mL (≈ 34.7 µM)
MIC90 [7]: 16 µg/mL (≈ 69.4 µM)
MIC [7, 22]: 4 µg/mL (≈ 17.3 µM)
MIC Range ([8]; MRSA (37)): 0.125 to 2 µg/mL
concentration by which all the isolates were inhibited ([8]; MRSA isolates): 2.0 µg/mL
MIC50 ([8]; Staphylococcus aureus, MRSA): 2 µg/mL (≈ 8.67 µM)
MIC90 ([8]; Staphylococcus aureus, MRSA): 2 µg/mL (≈ 8.67 µM)
MIC ([8]; Staphylococcus aureus, MRSA, read-out: Modal MIC (most frequent MIC)): 2 µg/mL (≈ 8.67 µM)
MIC Range ([9]; MSSA (13)): 0.5 to 4 µg/mL
MIC50 ([9]; Staphylococcus aureus, MSSA): 1 µg/mL (≈ 4.34 µM)
MIC90 ([9]; Staphylococcus aureus, MSSA): 2 µg/mL (≈ 8.67 µM)
MIC ([9]; Staphylococcus aureus, MSSA, read-out: Modal MIC (most frequent MIC)): 1 µg/mL (≈ 4.34 µM)
MIC50 [10]: 8 µg/mL (≈ 34.7 µM)
MIC90 [10]: 16 µg/mL (≈ 69.4 µM)
MIC [10, 22]: 8 µg/mL (≈ 34.7 µM)
MIC Range ([11]; E. faecium (34)): 2 to 32 µg/mL
MIC50 ([11]; Enterococcus faecium): 4 µg/mL (≈ 17.3 µM)
MIC90 ([11]; Enterococcus faecium): 8 µg/mL (≈ 34.7 µM)
MIC ([11]; Enterococcus faecium, read-out: Modal MIC (most frequent MIC)): 4 µg/mL (≈ 17.3 µM)
concentration to which all the isolates were sensitive [12]: ≤ 2 µg/mL
MIC50 [13]: 0.5 µg/mL (≈ 2.17 µM)
MIC90 [13]: 8 µg/mL (≈ 34.7 µM)
MIC [13, 22]: 1 µg/mL (≈ 4.34 µM)
MIC50 [14]: 0.5 µg/mL (≈ 2.17 µM)
MIC90 [14]: > 8 µg/mL
MIC [14, 22]: 0.063 µg/mL (≈ 0.273 µM)
MIC50 [15]: 0.5 µg/mL (≈ 2.17 µM)
MIC90 [15]: 2 µg/mL (≈ 8.67 µM)
MIC [15, 22]: 1 µg/mL (≈ 4.34 µM)
concentration to which all the isolates were sensitive [16]: ≤ 2 µg/mL
concentration to which all the isolates were sensitive [17]: ≤ 2 µg/mL
concentration to which all the isolates were sensitive [18]: ≤ 2 µg/mL
concentration by which all isolates were inhibited [19]: ≤ 2 µg/mL
MIC [20]: 2 to 4 µg/mL (≈ 8.67 to 17.3 µM)
effect on the osidase activities of the strains of Escherichia coli [21]: selectively inhibit

— US9969758B2, “Antimicrobial compounds” (BIOMERIEUX, priority 2014, dated 2018)
